Non-standard residues stand in square brackets, D forms with d. Residues, ends and D or L forms follow the SMILES beside them. Tle = CC(C)(C)[C@H](N)C(=O)O

Broadly, the IC50 is the concentration at which inhibition is half-maximal. A lower IC50 goes with higher potency. One may read the Ki as a dissociation constant, usually derived from enzyme kinetics or from competition with a known ligand. Lower therefore signals tighter binding.

Assay [1] concerns the target T1, NTS1 (Homo sapiens, UniProt P30989).
T1 construct: endogenous in cells; host or cells: HT29 cells (membranes or living cells)
Briefly: Binding to living HT29 cells (competition). To be noted: 60 min 37° C., tracer [Lys6(DTPA(111In))]-NT, the labeled DTPA(111In)-peptide itself, or 125I-NT (DOTA-peptides). The method, then:
After washing the wells twice with ice-cold DMEM 0.2% BSA, cells were lysed in 500 μL 0.1N NaOH and radioactivity was counted. Non-specific binding was evaluated in the presence of 10^-6 M neurotensin. Competition curves were analyzed with the “Equilibrium Expert” software (Raguin et al., Anal. Biochem. (2002) 310, 1-14). All experiments were performed three times in triplicate. Ki values for binding to HT29 cell membranes and IC50 for binding to cells were used to evaluate affinity (Table 2).

The target of assay [2] is T1, NTS1. The assay is described as follows: Binding to HT29 cell membranes (competition with 125I-Tyr3-neurotensin). To be noted: 50 pM 125I-Tyr3-neurotensin, 45 min room temperature. The method, then: Membrane bound activity was recovered by filtration onto Whatman GF/B filters presoaked for 1 hour with polyethyleneimine (0.2% in water) and rinsed twice with buffer. Non-specific binding was evaluated in the presence of 10^-6 M neurotensin. Radioactivity was counted and results were analyzed with GraphPad Prism® (GraphPad Software, Inc. San Diego, Calif.). All experiments were performed three times in triplicate. Ki values for binding to HT29 cell membranes and IC50 for binding to cells were used to evaluate affinity (Table 2).

T1 sequence (P30989 whole entry): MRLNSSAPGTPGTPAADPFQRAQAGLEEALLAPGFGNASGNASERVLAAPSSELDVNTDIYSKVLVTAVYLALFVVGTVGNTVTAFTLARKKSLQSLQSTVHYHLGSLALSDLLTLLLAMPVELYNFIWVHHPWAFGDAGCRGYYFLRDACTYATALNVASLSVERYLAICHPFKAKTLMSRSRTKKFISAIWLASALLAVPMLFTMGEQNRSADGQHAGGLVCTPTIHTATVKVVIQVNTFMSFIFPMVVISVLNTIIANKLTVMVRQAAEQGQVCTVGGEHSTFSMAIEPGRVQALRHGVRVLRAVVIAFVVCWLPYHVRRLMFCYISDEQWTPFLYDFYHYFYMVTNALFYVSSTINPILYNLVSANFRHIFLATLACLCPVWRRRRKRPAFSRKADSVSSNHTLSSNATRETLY

`CC[C@H](C)[C@H](NC(=O)[C@H](Cc1ccc(O)cc1)NC(=O)[C@@H]1CCCN1C(=O)[C@H](CCCNC(=N)N)NC(=O)[C@H](CCCNC(=N)N)NC(=O)[C@@H]1CCCN1C(=O)[C@H](CCCCN)NC(C)=O)C(=O)N[C@@H](CC(C)C)C(=O)O` [NT-20.1] returned an IC50 on NTS1 [1] of 0.82 ± 0.08 nM. The same compound showed a Ki at NTS1 [2] of 0.072 ± 0.019 nM.
In the same order, the values of `CC(=O)N[C@@H](CCCCN)C(=O)N1CCC[C@H]1C(=O)N[C@@H](CCCNC(=N)N)C(=O)N[C@@H](CCCNC(=N)N)C(=O)N1CCC[C@H]1C(=O)N[C@@H](Cc1ccc(O)cc1)C(=O)N[C@H](C(=O)N[C@@H](CC(C)C)C(=O)O)C(C)(C)C` [NT-20.2, Ac-Lys-Pro-Arg-Arg-Pro-Tyr-Tle-Leu-OH] (Ac-KPRRPY[Tle]L-OH) are 2.46 ± 0.79 nM and 0.26 ± 0.07 nM.

The record behind these values is patent publication US9809624B2, “Neurotensin analogues for radioisotope targeting to neurotensin receptor-positive tumors” (INSERM (Institut National de la Sante et de la Recherche …, priority 2009, dated 2017).
